Values after ≈ are worked out from the molar mass of the structure shown.
Columns and labels:
[1] = test system: Pseudomonas aeruginosa Walter; assay: in vivo test against experimental Pseudomonas infection in mice; parameters: species or system Female NMRI mice; settings: sc, 168 h, dose at which 50% of the animals survived, subcutaneous, 6 times first day, twice on second and third day, observation 7 days
Protocol: (§1) The compounds according to the invention were tested in vivo in mice against experimental infections. As pathogenic bacteria E.coli ATCC 11775 and Pseudomonas aeruginosa Walter were used. An intraperitoneal infection was induced in each mouse with 0.2 ml of a 5% mucin suspension of the bacteria corresponding to about 1.4×10^6 E. coli germs and 1.3×10^6 pseudomonas germs/mouse. Female NMRI mice were used, divided into groups of 10 animals. Two groups were untreated and the remaining groups were treated with different doses of the penicillins to be tested to determine the ED50 (dose at which 50% of the animals survived). The groups infected with E. coli were on the first day treated with the test compound three times ([…] post infectionem) and on the second day twice. The groups with the pseudomonas infection were on the first day treated with the test compound 6 times (1, 3, 5, 7, 9 and 11 hours post infectionem) and on the second and third day twice.
(§2) The observation time was in both cases 7 days.

[2] = test system: Escherichia coli ATCC 9637; assay: serial dilution test in the microtiter system, MIC; assay type: cell-based; settings: ATCC9637, E. Coli ATCC 9637, 37° C., 18-20 hours
Protocol: (§3) The tests were performed according to the method of the serial dilution test in the microtiter system. The effect of the test substances on bacteriostasis was examined in a fluid medium. The bacteristatic activity was examined at the following concentrations: 80, 40, 20, 10, 5, 2.5, 1.25, 0.6, 0.3, 0.08 and 0.01 μgm/ml.
(§4) The nutrient medium consisted of: 10 gm of peptone, 8 gm of meat extract oxoid, 3 gm of sodium chloride, and 2 gm of sec. sodium phosphate diluted with distilled water to 1000 ml (pH 7.2-7.4). Only in the test against streptococci was 1% of glucose added. The age of the primary cultures was about 20 hours. The standardization of the microorganism suspension was effected by means of a photometer according to the method of Eppendorf (test tube diameter 14 mm, filter 546 nm), using for comparison a barium sulfate suspension formed by the addition of 3.0 ml of 1% barium chloride solution to 97 ml of 1% sulfuric acid. After the standardization, the Streptococcus aronson was further diluted to a concentration of 1:15 and the other microorganisms to a concentration of 1:1500 using a sodium chloride solution. 16 mgm of the test compound were placed into a 10 ml measuring flask, and the flask was filled up to the mark with the solvent. The further dilution series was standardized with distilled water or the particular solvent.
(§5) The cavities of microtiter plates were filled with 0.2 ml of nutrient medium. Then, 0.01 ml of the appropriate test compound solution was added, followed by inoculation with 0.01 ml of the standardized microorganism suspension. The bacteria were incubated at 37° C. for 18-20 hours. Control tests using only the solvent were carried out simultaneously.
(§6) The measurement was carried out macroscopically to determine the minimum inhibitory concentration (the lowest still bacteriostatically effective concentration).
(§7) Staphylococcus aureus SG 511, Escherichia coli ATCC 9637 and 11775, Pseudomonas aeruginosa Hamburgensis, ATCC 10145 and Pseudomonas aeruginosa Walter, Serratia marcescens ATCC 13880, Klebsiella pneumoniae ATCC 10031 and 272 and Proteus mirabilis Hamburgensis.

[3] = test system: Klebsiella pneumoniae 272; assay: serial dilution test in the microtiter system, MIC; assay type: cell-based; settings: Klebs. pneum. 272, 37° C., 18-20 hours
Protocol: as §3, §4, §5, §6, §7

[4] = test system: Serratia marcescens ATCC 13880; assay: serial dilution test in the microtiter system, MIC; assay type: cell-based; settings: ATCC13880, Serrat. marsec., 37° C., 18-20 hours
Protocol: as §3, §4, §5, §6, §7

[5] = test system: Pseudomonas aeruginosa ATCC 10145; assay: serial dilution test in the microtiter system, MIC; assay type: cell-based; settings: ATCC10145, Pseud. aerug. ATCC 10145, 37° C., 18-20 hours
Protocol: as §3, §4, §5, §6, §7

[6] = test system: Klebsiella pneumoniae ATCC 10031; assay: serial dilution test in the microtiter system, MIC; assay type: cell-based; settings: ATCC10031, Klebs. pneum. ATCC 10031, 37° C., 18-20 hours
Protocol: as §3, §4, §5, §6, §7

[7] = test system: Pseudomonas aeruginosa Walter; assay: serial dilution test in the microtiter system, MIC; assay type: cell-based; settings: Pseud. aerug. Walter, 37° C., 18-20 hours
Protocol: as §3, §4, §5, §6, §7

[8] = test system: Proteus mirabilis Hamburgensis; assay: serial dilution test in the microtiter system, MIC; assay type: cell-based; settings: Prot. mirabilis ham., 37° C., 18-20 hours
Protocol: as §3, §4, §5, §6, §7

[9] = test system: Escherichia coli ATCC 11775; assay: serial dilution test in the microtiter system, MIC; assay type: cell-based; settings: ATCC11775, E. Coli ATCC 11775, 37° C., 18-20 hours
Protocol: as §3, §4, §5, §6, §7

[10] = test system: Pseudomonas aeruginosa Hamburgensis; assay: serial dilution test in the microtiter system, MIC; assay type: cell-based; settings: Pseud. aerug. hamb., 37° C., 18-20 hours
Protocol: as §3, §4, §5, §6, §7

E.coli ATCC 11775 = assay: in vivo test against experimental E. coli infection in mice; parameters: species or system Female NMRI mice; settings: Escherichia coli, ATCC11775, sc, 168 h, dose at which 50% of the animals survived, subcutaneous, three times first day, twice second day, observation 7 days
Protocol: as §1, §2

SMILES | ED50 [1] [mg/kg] | MIC [2] [µg/mL] | MIC [3] [µg/mL] | MIC [4] [µg/mL] | MIC [5] [µg/mL] | MIC [6] [µg/mL] | MIC [7] [µg/mL] | MIC [8] [µg/mL] | MIC [9] [µg/mL] | MIC [10] [µg/mL] | ED50 (E.coli ATCC 11775) [mg/kg]
COCCNc1ncc(NC(=O)N[C@@H](C(=O)N[C@@H]2C(=O)N3[C@@H]2SC(C)(C)[C@@H]3C(=O)O)c2ccc(O)cc2)c(O)n1 [A, D-α-[3-(4-hydroxy-2-{2'-methoxyethylamino}-5-pyrimidinyl)-ureido]-p-hydroxybenzyl-penicillin sodium] | 1.5 | 1.25 | 40 | 0.6 | 1.25 | 20 | 5 | 0.6 | 1.25 | 1.25 | 2
CC1(C)S[C@@H]2[C@H](NC(=O)[C@H](NC(=O)Nc3cnc(NCCCO)nc3O)c3ccc(O)cc3)C(=O)N2[C@H]1C(=O)O [B, D-α-[3-(4-hydroxy-2-{3'-hydroxypropylamino-}-5-pyrimidinyl)-ureido]-p-hydroxy-benzylpenicillin sodium] | 1.2 | 0.6 | 10 | 1.25 | 1.25 | 10 | 5 | 0.3 | 0.6 | 1.25 | 0.8
CC1(C)S[C@@H]2[C@H](NC(=O)[C@H](NC(=O)N3CCNC3=O)c3ccccc3)C(=O)N2[C@H]1C(=O)O [F, azlocillin, reference compound] | – | – | 40 (≈ 86.7 µM) | 5 (≈ 10.8 µM) | – | 40 (≈ 86.7 µM) | – | 1.25 (≈ 2.71 µM) | – | – | –
CCOC(=O)CCNc1ncc(NC(=O)NC(C(=O)NC2C(=O)N3C2SC(C)(C)C3C(=O)O)c2ccc(O)cc2)c(O)n1 [D, D-α-[3-(2-{2'-ethoxycarbonylethylamino}-4-hydroxy-5-pyrimidinyl)-ureido]-p-hydroxy-benzylpencillin sodium] | – | 0.3 | 10 | 1.25 | 2.5 | 10 | 2.5 | 0.3 | 0.6 | 2.5 | 4.2
